Test results: ChEMBL document CHEMBL1909046, “DrugMatrix in vitro pharmacology data”
pIC50, pKi: −log10 of the molar value.

What was measured:
Cytochrome P450 2E1 = Cytochrome P450 2E1 (Homo sapiens, UniProt P05181); conditions: bti-tn-5b1-4; further: in other assays of this panel Not Active means under 50% inhibition at 10 µM
Estrogen receptor beta = Estrogen receptor beta (Homo sapiens, UniProt Q92731); conditions: sf9; further: in other assays of this panel Not Active means under 50% inhibition at 10 µM
Estrogen receptor beta, sequence (Q92731 whole entry): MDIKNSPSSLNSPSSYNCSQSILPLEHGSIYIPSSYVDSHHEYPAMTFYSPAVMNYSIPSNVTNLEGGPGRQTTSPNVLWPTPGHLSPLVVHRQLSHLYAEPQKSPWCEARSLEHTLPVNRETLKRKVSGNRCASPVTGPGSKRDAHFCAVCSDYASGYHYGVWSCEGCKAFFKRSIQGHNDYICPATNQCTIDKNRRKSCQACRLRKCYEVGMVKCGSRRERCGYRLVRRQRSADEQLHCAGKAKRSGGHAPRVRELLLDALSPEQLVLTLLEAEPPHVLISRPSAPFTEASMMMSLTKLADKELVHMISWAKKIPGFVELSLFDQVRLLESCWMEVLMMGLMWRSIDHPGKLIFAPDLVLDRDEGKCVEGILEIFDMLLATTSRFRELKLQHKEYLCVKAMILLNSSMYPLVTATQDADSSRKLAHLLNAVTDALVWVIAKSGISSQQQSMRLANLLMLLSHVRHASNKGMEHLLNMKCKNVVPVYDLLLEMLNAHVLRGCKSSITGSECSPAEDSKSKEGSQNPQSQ

Carbonic anhydrase 2 = Carbonic anhydrase 2 (Homo sapiens, UniProt P00918); test: DRUGMATRIX: Carbonic Anhydrase II enzyme inhibition (substrate: 4-Nitrophenyl acetate (4-NPA)); assay type: tissue-based, Erythrocyte; conditions: erythrocyte; Not Active = under 50% inhibition at 10 µM
[1] = DRUGMATRIX: Glutamate, NMDA, Phencyclidine radioligand binding (ligand: [3H] TCP); assay type: cell membranes, Rattus norvegicus, Wistar, Cerebral cortex, Membrane; conditions: Not Active = under 50% inhibition at 10 µM
[2] = target: 5-hydroxytryptamine receptor 4 (Cavia porcellus, UniProt O70528); assay type: cell membranes, Dunkin-Hartley, Striatum, Membrane; further: in other assays of this panel Not Active means under 50% inhibition at 10 µM
5-hydroxytryptamine receptor 4, sequence (O70528 whole entry): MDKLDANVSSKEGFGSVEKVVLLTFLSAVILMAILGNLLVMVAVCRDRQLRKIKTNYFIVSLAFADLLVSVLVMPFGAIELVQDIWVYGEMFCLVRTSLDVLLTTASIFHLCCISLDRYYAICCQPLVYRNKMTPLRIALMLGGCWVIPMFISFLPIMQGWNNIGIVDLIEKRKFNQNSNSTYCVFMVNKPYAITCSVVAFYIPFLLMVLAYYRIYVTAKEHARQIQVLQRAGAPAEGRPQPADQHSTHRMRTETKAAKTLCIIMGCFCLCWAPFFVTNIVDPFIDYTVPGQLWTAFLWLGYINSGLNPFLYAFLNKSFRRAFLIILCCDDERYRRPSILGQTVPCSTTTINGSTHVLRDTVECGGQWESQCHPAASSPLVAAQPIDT

[3] = target: T1, Muscarinic acetylcholine receptor M5 (Homo sapiens, UniProt P08912); assay type: cell membranes, Membrane; conditions: cho-k1; further: in other assays of this panel Not Active means under 50% inhibition at 10 µM
T1 sequence (P08912 whole entry): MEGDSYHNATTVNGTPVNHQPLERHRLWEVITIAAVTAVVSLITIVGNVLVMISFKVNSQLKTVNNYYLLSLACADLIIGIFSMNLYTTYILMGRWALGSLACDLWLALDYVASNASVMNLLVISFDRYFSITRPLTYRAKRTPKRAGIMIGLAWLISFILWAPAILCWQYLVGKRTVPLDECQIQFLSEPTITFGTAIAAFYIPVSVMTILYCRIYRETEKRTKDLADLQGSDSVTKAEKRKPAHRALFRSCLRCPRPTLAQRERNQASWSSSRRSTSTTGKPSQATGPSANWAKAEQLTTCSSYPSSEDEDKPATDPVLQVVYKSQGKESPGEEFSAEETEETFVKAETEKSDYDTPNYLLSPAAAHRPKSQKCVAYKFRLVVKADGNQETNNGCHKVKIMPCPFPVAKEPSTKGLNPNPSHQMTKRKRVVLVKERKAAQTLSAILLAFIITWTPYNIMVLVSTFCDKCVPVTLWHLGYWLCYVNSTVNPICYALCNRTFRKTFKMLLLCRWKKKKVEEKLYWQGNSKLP

[4] = DRUGMATRIX: Phosphodiesterase PDE4 enzyme inhibition (substrate: [3H]cAMP + cAMP); conditions: u-937; Not Active = under 50% inhibition at 10 µM
Glycine receptor = Glycine receptor (Rattus norvegicus, UniProt P22771+P24524+P07727+P20781); assay type: cell membranes, Wistar, Spinal cord, Membrane; further: in other assays of this panel Not Active means under 50% inhibition at 10 µM

Cytochrome P450 2E1, sequence (P05181 whole entry): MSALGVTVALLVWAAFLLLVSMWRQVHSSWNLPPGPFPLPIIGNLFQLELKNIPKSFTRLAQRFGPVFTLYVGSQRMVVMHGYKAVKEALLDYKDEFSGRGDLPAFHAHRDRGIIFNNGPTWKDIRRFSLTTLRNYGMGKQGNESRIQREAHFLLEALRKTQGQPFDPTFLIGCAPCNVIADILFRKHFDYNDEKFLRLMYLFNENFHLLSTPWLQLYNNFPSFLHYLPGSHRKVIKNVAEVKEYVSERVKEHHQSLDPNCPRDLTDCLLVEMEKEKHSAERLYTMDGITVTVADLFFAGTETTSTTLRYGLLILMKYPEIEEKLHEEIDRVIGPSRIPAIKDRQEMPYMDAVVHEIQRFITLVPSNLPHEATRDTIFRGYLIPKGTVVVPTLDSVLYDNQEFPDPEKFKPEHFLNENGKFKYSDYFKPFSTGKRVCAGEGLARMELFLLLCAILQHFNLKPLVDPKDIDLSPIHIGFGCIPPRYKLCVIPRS

For INSULIN HUMAN, the IC50 (Cytochrome P450 2E1) was “Not Active”, the Ki (Cytochrome P450 2E1) was “Not Active” and the IC50 (Estrogen receptor beta) was “Not Active”. For the same molecule, the Ki (Estrogen receptor beta) was “Not Active”, the IC50 (Carbonic anhydrase 2) was “Not Active” and the Ki (Carbonic anhydrase 2) was “Not Active”. The IC50 [1] was “Not Active”, the Ki [1] was “Not Active” and the IC50 [2] was “Not Active”. The Ki [2] was “Not Active”, the IC50 [3] was “Not Active” and the Ki [3] was “Not Active”. For the same molecule, the IC50 [4] was “Not Active”, the Ki [4] was “Not Active” and the IC50 (Glycine receptor) was “Not Active”. The Ki (Glycine receptor) was “Not Active”.

With `CC(C)(CO)C(O)C(=O)NCCCO` (stereo not given) [PANTHENOL] the IC50 (Cytochrome P450 2E1) was “Not Active”, the Ki (Cytochrome P450 2E1) was “Not Active” and the IC50 (Estrogen receptor beta) was “Not Active”. The IC50 (Carbonic anhydrase 2) was “Not Active”, the IC50 [1] was “Not Active” and the Ki [1] was “Not Active”. The IC50 [2] was “Not Active”, the IC50 [3] was “Not Active” and the IC50 [4] was “Not Active”. The Ki [4] was “Not Active” and the IC50 (Glycine receptor) was “Not Active”.

In the case of `O=C(O)c1cc(=O)c2c(OCC(O)COc3cccc4oc(C(=O)O)cc(=O)c34)cccc2o1` [CROMOLYN], the IC50 (Cytochrome P450 2E1) was “Not Active”, the Ki (Cytochrome P450 2E1) was “Not Active” and the IC50 (Estrogen receptor beta) was “Not Active”. For the same molecule, the IC50 (Carbonic anhydrase 2) was “Not Active”, the IC50 [1] was “Not Active” and the Ki [1] was “Not Active”. For the same molecule, the IC50 [2] was “Not Active”, the IC50 [3] was “Not Active” and the IC50 [4] was “Not Active”. For the same molecule, the Ki [4] was “Not Active” and the IC50 (Glycine receptor) was “Not Active”.

With `O=C(/C=C/c1ccc(O)c(O)c1)OCCc1ccccc1` [CAFFEIC ACID PHENETHYL ESTER] the IC50 (Cytochrome P450 2E1) was “Not Active”, the Ki (Cytochrome P450 2E1) was “Not Active” and the IC50 (Estrogen receptor beta) was “Not Active”. For the same molecule, the IC50 (Carbonic anhydrase 2) was “Not Active”, the IC50 [1] was “Not Active” and the Ki [1] was “Not Active”. For the same molecule, the IC50 [2] was “Not Active”, the IC50 [3] was “Not Active” and the IC50 [4] was “Not Active”. For the same molecule, the Ki [4] was “Not Active” and the IC50 (Glycine receptor) was “Not Active”.

In the case of `CN1C[C@H](C(=O)N[C@]2(C)O[C@@]3(O)[C@@H]4CCCN4C(=O)[C@H](Cc4ccccc4)N3C2=O)C[C@@H]2c3cccc4[nH]cc(c34)C[C@H]21` [DIHYDROERGOTAMINE], the IC50 (Cytochrome P450 2E1) was “Not Active”, the Ki (Cytochrome P450 2E1) was “Not Active” and the IC50 (Estrogen receptor beta) was “Not Active”. For the same molecule, the IC50 (Carbonic anhydrase 2) was “Not Active”, the IC50 [1] was “Not Active” and the Ki [1] was “Not Active”. For the same molecule, the pIC50 ([2]; read-out: IC50) was 6.03, the pKi ([2]; read-out: Ki) was 6.80 and the IC50 [3] was “Not Active”. The IC50 [4] was “Not Active”, the Ki [4] was “Not Active” and the IC50 (Glycine receptor) was “Not Active”.

In the case of `CC[C@H](C)C(=O)O[C@H]1C[C@@H](C)C=C2C=C[C@H](C)[C@H](CC[C@@H]3C[C@@H](O)CC(=O)O3)[C@H]21` [LOVASTATIN], the IC50 (Cytochrome P450 2E1) was “Not Active”, the Ki (Cytochrome P450 2E1) was “Not Active” and the IC50 (Estrogen receptor beta) was “Not Active”. For the same molecule, the IC50 (Carbonic anhydrase 2) was “Not Active”, the IC50 [1] was “Not Active” and the Ki [1] was “Not Active”. The IC50 [2] was “Not Active”, the IC50 [3] was “Not Active” and the IC50 [4] was “Not Active”. The Ki [4] was “Not Active” and the IC50 (Glycine receptor) was “Not Active”.

In the case of `CC[C@H](C)C(=O)O[C@H]1C[C@H](O)C=C2C=C[C@H](C)[C@H](CC[C@@H](O)C[C@@H](O)CC(=O)O)[C@H]21` [PRAVASTATIN], the IC50 (Cytochrome P450 2E1) was “Not Active”, the Ki (Cytochrome P450 2E1) was “Not Active” and the IC50 (Estrogen receptor beta) was “Not Active”. The IC50 (Carbonic anhydrase 2) was “Not Active”, the IC50 [1] was “Not Active” and the Ki [1] was “Not Active”. For the same molecule, the IC50 [2] was “Not Active”, the IC50 [3] was “Not Active” and the IC50 [4] was “Not Active”. For the same molecule, the Ki [4] was “Not Active” and the IC50 (Glycine receptor) was “Not Active”.

For `CCOC(=O)n1ccn(C)c1=S` [CARBIMAZOLE], the IC50 (Cytochrome P450 2E1) was “Not Active”, the Ki (Cytochrome P450 2E1) was “Not Active” and the IC50 (Estrogen receptor beta) was “Not Active”. The IC50 (Carbonic anhydrase 2) was “Not Active”, the IC50 [1] was “Not Active” and the Ki [1] was “Not Active”. For the same molecule, the IC50 [2] was “Not Active”, the IC50 [3] was “Not Active” and the IC50 [4] was “Not Active”. For the same molecule, the Ki [4] was “Not Active” and the IC50 (Glycine receptor) was “Not Active”.

For `C#C[C@]1(O)CC[C@H]2[C@@H]3CCC4=Cc5oncc5C[C@]4(C)[C@H]3CC[C@@]21C` [DANAZOL], the IC50 (Cytochrome P450 2E1) was “Not Active”, the Ki (Cytochrome P450 2E1) was “Not Active” and the IC50 (Estrogen receptor beta) was “Not Active”. The IC50 (Carbonic anhydrase 2) was “Not Active”, the IC50 [1] was “Not Active” and the Ki [1] was “Not Active”. The IC50 [2] was “Not Active”, the IC50 [3] was “Not Active” and the IC50 [4] was “Not Active”. For the same molecule, the Ki [4] was “Not Active” and the IC50 (Glycine receptor) was “Not Active”.
